Source: patent US12558357B2, “Tetrahydroquinazoline derivatives as selective cytotoxic agents” (Merck Sharp & Dohme LLC, priority 2020, dated 2026)

test system: PBMCs infected with VSV-G pseudotyped HIV virus (VSV-G/pNLG1-P2A-ΔEnv); test: cells; assay type: cell-based, human; conditions: Homo sapiens, PBMC, read-out: EC50 (HIV-TACK cell kill activity)

**Q.** With `Nc1nccn(Cc2cc3c(cc2Cl)[C@@](C#CC2CC2)(C(F)(F)F)NC(=O)N3)c1=O` [Example 58, (S)-7-((3-amino-2-oxopyrazin-1(2H)-yl)methyl)-6-chloro-4-(cyclopropylethynyl)-4-(trifluoromethyl)-3,4-dihydroquinazolin-2(1H)-one] as the compound, how does the EC50 read?
**A.** Its EC50 is 41 nM.

**Q.** Which EC50 does the source give for `Cc1cn(Cc2ccc3c(c2)NC(=O)N[C@]3(C#CC2CC2)C(F)(F)F)c(=O)c(N)n1` [Example 59, (S)-7-((3-amino-5-methyl-2-oxopyrazin-1(2H)-yl)methyl)-4-(cyclopropylethynyl)-4-(trifluoromethyl)-3,4-dihydroquinazolin-2(1H)-one] here?
**A.** Its EC50 is 78 nM.

**Q.** How did the EC50 turn out when `Cc1nc(N)c(=O)n(Cc2ccc3c(c2)NC(=O)N[C@]3(C#CC2CC2)C(F)(F)F)c1C` [Example 60, (S)-7-((3-amino-5,6-dimethyl-2-oxopyrazin-1(2H)-yl)methyl)-4-(cyclopropylethynyl)-4-(trifluoromethyl)-3,4-dihydroquinazolin-2(1H)-one] was run?
**A.** Its EC50 is 156 nM.

**Q.** For `COCc1cc(=O)n(Cc2cc3c(cc2Cl)[C@@](C#CC2CC2)(C(F)(F)F)NC(=O)N3)cn1` [Example 61, (S)-6-chloro-4-(cyclopropylethynyl)-7-((4-(methoxymethyl)-6-oxopyrimidin-1(6H)-yl)methyl)-4-(trifluoromethyl)-3,4-dihydroquinazolin-2(1H)-one], which EC50 is on record?
**A.** The EC50 was 38 nM.

**Q.** How did the EC50 turn out when `O=C1Nc2cc(Cn3cnc(C(F)F)cc3=O)c(Cl)cc2[C@@](C#CC2CC2)(C(F)(F)F)N1` [Example 62, (S)-6-chloro-4-(cyclopropylethynyl)-7-((4-(difluoromethyl)-6-oxopyrimidin-1(6H)-yl)methyl)-4-(trifluoromethyl)-3,4-dihydroquinazolin-2(1H)-one] was run?
**A.** Its EC50 is 41 nM.

**Q.** How did the EC50 turn out when `O=C1Nc2cc(Cn3cnc(CO)cc3=O)ccc2[C@@](C#CC2CC2)(C(F)(F)F)N1` [Example 63, (S)-4-(cyclopropylethynyl)-7-((4-(hydroxymethyl)-6-oxopyrimidin-1(6H)-yl)methyl)-4-(trifluoromethyl)-3,4-dihydroquinazolin-2(1H)-one] was run?
**A.** Its EC50 is 145 nM.

**Q.** Which EC50 does the source give for `Cc1cc(=O)n(Cc2ccc3c(c2)NC(=O)N[C@]3(C#CC2CC2)C(C)(F)F)cn1` [Example 64, (S)-4-(cyclopropylethynyl)-4-(1,1-difluoroethyl)-7-((4-methyl-6-oxopyrimidin-1(6H)-yl)methyl)-3,4-dihydroquinazolin-2(1H)-one] here?
**A.** Its EC50 is 93 nM.

**Q.** With `O=C1Nc2cc(Cn3cnc(CO)cc3=O)c(F)cc2[C@@](C#CC2CC2)(C(F)(F)F)N1` [Example 65, (S)-4-(cyclopropylethynyl)-6-fluoro-7-((4-(hydroxymethyl)-6-oxopyrimidin-1(6H)-yl)methyl)-4-(trifluoromethyl)-3,4-dihydroquinazolin-2(1H)-one] as the compound, how does the EC50 read?
**A.** The EC50 was 45 nM.

**Q.** For `O=C1Nc2cc(Cn3cncc(CO)c3=O)c(F)cc2[C@@](C#CC2CC2)(C(F)(F)F)N1` [Example 66, (S)-4-(cyclopropylethynyl)-6-fluoro-7-((5-(hydroxymethyl)-6-oxopyrimidin-1(6H)-yl)methyl)-4-(trifluoromethyl)-3,4-dihydroquinazolin-2(1H)-one], which EC50 is on record?
**A.** The EC50 was 188 nM.

**Q.** How did the EC50 turn out when `CC(F)(F)[C@@]1(C#CC2CC2)NC(=O)Nc2cc(Cn3ccnc(N)c3=O)c(F)cc21` [Example 67, (S)-7-((3-amino-2-oxopyrazin-1(2H)-yl)methyl)-4-(cyclopropylethynyl)-4-(1,1-difluoroethyl)-6-fluoro-3,4-dihydroquinazolin-2(1H)-one] was run?
**A.** Its EC50 is 12 nM.

**Q.** With `Nc1nc(Cl)cn(Cc2ccc3c(c2)NC(=O)N[C@]3(C#CC2CC2)C(F)(F)F)c1=O` [Example 68, (S)-7-((3-amino-5-chloro-2-oxopyrazin-1(2H)-yl)methyl)-4-(cyclopropylethynyl)-4-(trifluoromethyl)-3,4-dihydroquinazolin-2(1H)-one] as the compound, how does the EC50 read?
**A.** Its EC50 is 71 nM.

**Q.** With `N#Cc1ncn(Cc2cc3c(cc2F)[C@@](C#CC2CC2)(C(F)(F)F)NC(=O)N3)c(=O)c1N` [Example 69, (S)-5-amino-1-((4-(cyclopropylethynyl)-6-fluoro-2-oxo-4-(trifluoromethyl)-1,2,3,4-tetrahydroquinazolin-7-yl)methyl)-6-oxo-1,6-dihydropyrimidine-4-carbonitrile] as the compound, how does the EC50 read?
**A.** Its EC50 is 29 nM.

**Q.** With `O=c1ccncn1Cc1ccc2c(c1)NC(=S)N[C@]2(C#CC1CC1)C(F)(F)F` [Example 70, (S)-3-((4-(cyclopropylethynyl)-2-thioxo-4-(trifluoromethyl)-1,2,3,4-tetrahydroquinazolin-7-yl)methyl)pyrimidin-4(3H)-one] as the compound, how does the EC50 read?
**A.** Its EC50 is 93 nM.

**Q.** For `Nc1nccn(Cc2ccc3c(c2)NC(=S)N[C@]3(C#CC2CC2)C(F)(F)F)c1=O` [Example 71, (S)-3-amino-1-((4-(cyclopropylethynyl)-2-thioxo-4-(trifluoromethyl)-1,2,3,4-tetrahydroquinazolin-7-yl)methyl)pyrazin-2(1H)-one], which EC50 is on record?
**A.** The EC50 was 41 nM.

**Q.** Which EC50 does the source give for `Nc1c(C(F)(F)F)ccn(Cc2ccc3c(c2)NC(=O)N[C@]3(C#CC2CC2)C(F)(F)F)c1=O` [Example 72, (S)-7-((3-amino-2-oxo-4-(trifluoromethyl)pyridin-1(2H)-yl)methyl)-4-(cyclopropylethynyl)-4-(trifluoromethyl)-3,4-dihydroquinazolin-2(1H)-one] here?
**A.** The EC50 was 193 nM.

**Q.** How did the EC50 turn out when `CN1C(=O)Nc2cc(Cn3cnccc3=O)ccc2[C@@]1(C#CC1CC1)C(F)(F)F` [Example 73, (S)-4-(cyclopropylethynyl)-3-methyl-7-((6-oxopyrimidin-1(6H)-yl)methyl)-4-(trifluoromethyl)-3,4-dihydroquinazolin-2(1H)-one] was run?
**A.** The EC50 was 275 nM.

**Q.** With `CCN1C(=O)Nc2cc(Cn3cnccc3=O)ccc2[C@@]1(C#CC1CC1)C(F)(F)F` [Example 74, (S)-4-(cyclopropylethynyl)-3-ethyl-7-((6-oxopyrimidin-1(6H)-yl)methyl)-4-(trifluoromethyl)-3,4-dihydroquinazolin-2(1H)-one] as the compound, how does the EC50 read?
**A.** The EC50 was 263 nM.

**Q.** For `Cc1cc2c(cc1Cn1cnccc1=O)NC(=O)N[C@]2(C#CC1CC1)C(F)(F)F` [Example 80, (S)-4-(cyclopropylethynyl)-6-methyl-7-((6-oxopyrimidin-1(6H)-yl)methyl)-4-(trifluoromethyl)-3,4-dihydroquinazolin-2(1H)-one], which EC50 is on record?
**A.** The EC50 was 57 nM.

**Q.** For `CC(F)(F)c1ncn(Cc2ccc3c(c2)NC(=O)N[C@]3(C#CC2CC2)C(F)(F)F)c(=O)c1N` [Example 81, (S)-7-((5-amino-4-(1,1-difluoroethyl)-6-oxopyrimidin-1(6H)-yl)methyl)-4-(cyclopropylethynyl)-4-(trifluoromethyl)-3,4-dihydroquinazolin-2(1H)-one], which EC50 is on record?
**A.** Its EC50 is 166 nM.

**Q.** Which EC50 does the source give for `COc1ccc(=O)n(Cc2cc3c(cc2F)[C@@](C#CC2CC2)(C(C)(F)F)NC(=O)N3)n1` [Example 82, (S)-4-(cyclopropylethynyl)-4-(1,1-difluoroethyl)-6-fluoro-7-((3-methoxy-6-oxopyridazin-1(6H)-yl)methyl)-3,4-dihydroquinazolin-2(1H)-one] here?
**A.** The EC50 was 66 nM.

**Q.** Which EC50 does the source give for `COc1cnn(Cc2cc3c(cc2F)[C@@](C#CC2CC2)(C(C)(F)F)NC(=O)N3)c(=O)c1` [Example 83, (S)-4-(cyclopropylethynyl)-4-(1,1-difluoroethyl)-6-fluoro-7-((4-methoxy-6-oxopyridazin-1(6H)-yl)methyl)-3,4-dihydroquinazolin-2(1H)-one] here?
**A.** Its EC50 is 51 nM.

**Q.** How did the EC50 turn out when `COc1ccn(Cc2cc3c(cc2F)[C@@](C#CC2CC2)(C(C)(F)F)NC(=O)N3)c(=O)c1` [Example 84, (S)-4-(cyclopropylethynyl)-4-(1,1-difluoroethyl)-6-fluoro-7-((4-methoxy-2-oxopyridin-1(2H)-yl)methyl)-3,4-dihydroquinazolin-2(1H)-one] was run?
**A.** Its EC50 is 30 nM.

**Q.** Which EC50 does the source give for `Cc1cn(Cc2cc3c(cc2F)[C@@](C#CC2CC2)(C(C)(F)F)NC(=O)N3)c(=O)c(N)n1` [Example 85, (S)-7-((3-amino-5-methyl-2-oxopyrazin-1(2H)-yl)methyl)-4-(cyclopropylethynyl)-4-(1,1-difluoroethyl)-6-fluoro-3,4-dihydroquinazolin-2(1H)-one] here?
**A.** Its EC50 is 14 nM.
